Where a SMILES comes first, the peptide text is derived from it. The star is where a group is joined. 5TAMRA = CN(C)c1ccc2c(c1)Oc1cc(N(C)C)ccc1C21OC(=O)c2cc(C(=O)*)ccc21; X1 = O=C(CON=CCO[C@H]1O[C@H](CO)[C@@H](O)[C@H](O)[C@@H]1O)*; X2 = CC(C)=NOCC(=O)*; Ahx = NCCCCCC(=O)O
Legend:
HeLa cells [1] = assay: Viability in the presence of saporin (MTT); assay type: cell-based; conditions: up to 30 µM, 1 h incubation, Figure 9
Protocol: Saporin (253 aa, 28 kDa) is a toxic protein from the group of the ribosome-inactivating proteins (RIP), which is not capable of reaching the cytosol by itself, although it can be passively internalized by pinocytosis if it is found in the culture medium, being retained in endosomes. Incubation of the cells with this protein in the presence of an endosomolytic agent causes the release of the protein to the cytosol and cell death.
For the experiment, HeLa cells were incubated in a 96-well plate with 10 µg/mL of saporin, and increasing concentrations of the P8 and R8 acetylated peptides.
The cells were co-incubated with the protein and peptide for 1 h in culture medium without serum or antibiotics, at which time the compounds were removed, washed and complete medium was added for 6 h, to allow the maturation of the endosomes and the escape of the toxin. At that time, MTT (tetrazolium salt) was added, cells were further incubated for 3 h, and the medium removed before solubilizing the formazan salt with DMSO. This viability test measures the reduction of MTT to formazan by mitochondrial activity, which can then be quantified by absorbance.

HeLa cells [2] = assay: Cell transport experiments (fluorescence microscopy, co-localization); assay type: cell-based; conditions: for transport of ConA: ConA labelled with Alexa Fluor-647
Protocol: HeLa cells growing on four chamber glass bottom dishes were washed with HEPES-Krebs-Ringer (HKR) buffer (5 mM HEPES, 137 mM NaCl, 2.68 mM KCI, 2.05 mM MgCl2, 1.8 mM CaCl2, pH 7.4) and nuclei were stained by incubation with 1 µM Hoechst 33342 in HKR for 30 min. The CPP and protein were diluted in HKR and incubated for 7 min at room temperature to allow the formation of the complexes. Cells were washed with HKR and incubated with the complexes for another 30 min. Cells were washed again to remove excess peptide before performing epifluorescence microscopy using a Nikon Eclipse Ti-E inverted microscope or confocal microscopy with a Leica SP5 microscope. Images were analyzed with ImageJ and the co-localization parameters (Manders coefficients) were calculated using the Coloc2 plugin selecting the Costes method of threshold regression.

endosomes = assay: Dextran escape from endosomes; assay type: cell-based; conditions: dextran 250 µg/ml; Figure 11
Protocol: Dextran is a polysaccharide (in this case labeled with a green fluorescent probe) known to internalize cells through the endocytic pathway. Thus, if the CPPs of the invention are capable of inducing release of dextrane from endosomes into the cytosol, the cell will display diffuse green fluorescence. The experiment was run by incubating dextran (250 µg/ml) in the presence of 5 µM of a CPP: (i) P8 marked with TAMRA, (ii) acetylated P8, and (iii) R8 as comparison.

[3] = test system: HeLa cells stably transfected with a plasmid carrying the LoxP-DsRED-STOP-LoxP-eGFP insert; assay: Cre recombinase protein cytosolic delivery (Cre Reporter system); assay type: cell-based; conditions: 1 µM Cre recombinase protein
Protocol: In order to further test the capabilities of the CPPs of the invention to release macromolecules into the cytosol, a Cre recombinase delivery assay was done in the presence of P8. HeLa cells stably transfected with a plasmid carrying the LoxP-DsRED-STOP-LoxP-eGFP insert (Cre Reporter system) were incubated with 1 µM Cre recombinase protein and CPPs P8 or R8 at different concentrations.
These cells express normally the dsRED protein (red fluorescence), but when the Cre recombinase protein removes the dsRED ORF by recombination, the eGFP gene (green fluorescence) is expressed instead. Thus, the percentage of cells expressing eGFP can be used as a measure of the percentage of cells where the Cre Recombinase had been effectively released into the cytosol.

[4] = Circular dichroism, percentage of helicity; assay type: physicochemical; conditions: 40°C; for % Helicity in Liposomes: egg yolk phosphatidylcholine liposomes
Protocol: Circular Dichroism (CD) measurements were performed with a Jasco J-1100 CD Spectrometer equipped with a Jasco MCB-100 Mini Circulation Bath for temperature control.
Circular dichroism measurements were carried out with the following settings: acquisition range: 300-190 nm; band width: 1.0 nm; accumulation: 3 scans; data pitch: 1 nm; CD scale 200 mdeg/1.0 dOD; D.I.T. (Data Integration Time): 1 s; scanning mode: continuous; scanning speed: 200 nm/min. Measurements were done from 10 °C to 60 °C (data interval: 10 °C; temp. gradient 5 °C/min) in a quartz cell of 0.2 cm path length at a final volume of 0.5 mL (H2O or TFE) with a final peptide concentration of 200 µM.
The results are expressed as the mean residue molar ellipticity [θ]MRt with units of degrees·cm^2.dmol^-1 and calculated using the equation S1.
The percentage of helicity was calculated using the equation S2. For the measurements in liposomes, samples were prepared by drying under reduced pressure L-α-phosphatidylcholine (16.7 µL, 25 mg/mL solution in CHCl3) and peptide (300 µL, 100 µM) in TFE to obtain a ratio lipid/peptide of 18:1 in a 10 mL round bottomed flask. The mixture was concentrated in a rotary evaporator to dryness, forming a film. The lipid/peptide mixture were suspended in HKR buffer (300 µL) to a final peptide concentration 100µM and sonicated for 45 min until a clear solution was obtained. Spectra were recorded in a 0.2 cm path length quartz cell. [formula]
Equation S1: Formula to calculate the ellipticity. θ is the ellipticity (mdeg), C is the peptide concentration (M) and I is the cell path length (cm). helicity % = (θMRt222nm−2340)/(30300) × 100 [formula]
Equation S2: Formula to calculate the percent of helicity in where the molar ellipticity at 222 nm is an absolute value.

HeLa cells [5] = assay: Quantification of the uptake by flow cytometry; assay type: cell-based; conditions: TAMRA labelled peptides, 1, 3, 5, 7, 10 µM; Figure 3
Protocol: For internalization standard assays we measured the amount of peptide fluorescence in cells by flow cytometry. Briefly, semiconfluent monolayers of HeLa cells seeded the day before were washed twice with HKR before incubation with different concentrations (1, 3, 5, 7, 10 µM) of TAMRA labelled peptides diluted in cell culture medium without serum for 1 hour at 37 °C . Then, cells were trypsinized with 100 µL of Trypsin-EDTA (Gibco) for 10 min at 37 °C, and trypsin neutralized with 100 µL of 2 % FBS in PBS with 5 mM EDTA. Pipetting broke cell clumps and the analysis was done in a Guava easyCyte™ cytometer. TAMRA levels were determined by excitation at 532 nm and detection at 575/25 nm. For the analysis, cells with typical FSC and SSC parameters were selected, and median fluorescence intensity was calculated for each sample. Data analysis was performed with InCyte software included in GuavaSoft 3.2 (Millipore).
The results of uptake of CPP P8 in HeLa, A-549 and SF9 are depicted in Figure 5: Uptake quantification by flow cytometry in three different cell lines: HeLa cells, A549 cells and Sf9 cells. Data points were collected in triplicate at six different concentrations (0, 1, 3, 5, 7, 10 µM). Cells were treated in DMEM (-) (HeLa, A549), or Sf-900-II (-) (Sf9) for 1 hour prior to trypsinization and cytometry quantification. Error bars indicate SD of three replicates.

[6] = co-localization of peptide and ConA

CC(C)C[C@H](NC(=O)c1ccc2c(c1)C(=O)OC21c2ccc(N(C)C)cc2Oc2cc(N(C)C)ccc21)C(=O)N[C@@H](CCCNC(=N)N)C(=O)N[C@@H](C)C(=O)N[C@@H](CC(C)C)C(=O)N[C@@H](C)C(=O)N[C@@H](C)C(=O)N[C@@H](CC(C)C)C(=O)N[C@@H](C)C(=O)N[C@@H](CCCNC(=N)N)C(=O)N[C@@H](C)C(=O)N[C@@H](C)C(=O)N[C@@H](C)C(=O)N[C@@H](C)C(=O)N[C@@H](C)C(=O)N[C@@H](C)C(=O)N[C@@H](CCCNC(=N)N)C(N)=O [P8, TmL R ALAALA R A6 R] (5TAMRA-LRALAALARAAAAAAR-NH2)
toxicity to HeLa cells, peptide alone (HeLa cells [1]): little or no toxicity

CC(C)=NOCC(=O)NCCCC[C@H](NC(=O)[C@H](CCCNC(=N)N)NC(=O)CCCCCNC(=O)c1ccc2c(c1)C(=O)OC21c2ccc(N(C)C)cc2Oc2cc(N(C)C)ccc21)C(=O)N[C@@H](CC(C)C)C(=O)N[C@@H](CCCNC(=N)N)C(=O)N[C@@H](CCCNC(=N)N)C(=O)N[C@@H](CC(C)C)C(=O)N[C@@H](CC(C)C)C(=O)N[C@@H](CCCNC(=N)N)C(=O)N[C@@H](CCCNC(=N)N)C(=O)N[C@@H](CC(C)C)C(=O)N[C@@H](CCCCNC(=O)CON=C(C)C)C(=O)N[C@@H](CCCNC(=N)N)C(=O)N[C@@H](CC(C)C)C(N)=O [TmP(Acetone)2, reference compound] ({5TAMRA-Ahx}-RK(X2)LRRLLRRLK(X2)RL-NH2)
transport of ConA (HeLa cells [2]): did not complex or transport ConA

CC(C)C[C@H](NC(=O)[C@H](CCCNC(=N)N)NC(=O)[C@H](CCCCNC(=O)CON=CCO[C@H]1O[C@H](CO)[C@@H](O)[C@H](O)[C@@H]1O)NC(=O)[C@H](CC(C)C)NC(=O)[C@H](CCCNC(=N)N)NC(=O)[C@H](CCCNC(=N)N)NC(=O)[C@H](CC(C)C)NC(=O)[C@H](CC(C)C)NC(=O)[C@H](CCCNC(=N)N)NC(=O)[C@H](CCCNC(=N)N)NC(=O)[C@H](CC(C)C)NC(=O)[C@H](CCCCNC(=O)CON=CCO[C@H]1O[C@H](CO)[C@@H](O)[C@H](O)[C@@H]1O)NC(=O)[C@H](CCCNC(=N)N)NC(=O)CCCCCNC(=O)c1ccc2c(c1)C(=O)OC21c2ccc(N(C)C)cc2Oc2cc(N(C)C)ccc21)C(N)=O [TmP(Man)2] ({5TAMRA-Ahx}-RK(X1)LRRLLRRLK(X1)RL-NH2)
transport of ConA (HeLa cells [2]): the ConA cellular uptake was observed
Manders coefficients (peptide and protein co-localization) (HeLa cells [2]; approximate value given in the text): ~0.6
Manders' tM1 (Peptide) (HeLa cells [2]; [6]): 0.66
Manders' tM2 (Protein) (HeLa cells [2]; [6]): 0.63

Ac-LRALAALARAAAAAAR-NH2 [acetylated P8, AcL R ALAALA R A6 R]
concentration at which the peptide starts to release the dextran into the cytosol (endosomes): 10 µM
peptide concentration at the maximum percentage of eGFP expressing cells [3]: 10 µM
maximum percentage of eGFP expressing cells ([3]; Figure 10): 35%

TmHexA R AALLAA R AALA3 R [P3]
% Helicity in water [4]: 21.7%
% Helicity in Liposomes [4]: 12.7%

TmHexA R ALAALA R ALA4 R [P6]
% Helicity in water [4]: 35.1%
% Helicity in Liposomes [4]: 29.9%
uptake in living HeLa cells (HeLa cells [5]): perform better in the uptake test

TmHexL R A5L R A5L R [P5]
% Helicity in water [4]: 19.3%
% Helicity in Liposomes [4]: 29.5%
uptake in living HeLa cells (HeLa cells [5]): perform better in the uptake test

Reference: patent EP3556767A1, “CELL PENETRATING PEPTIDES” (Universidade De Santiago De Compostela, priority 2018, dated 2019)
